Tests used:
Du-Pro1 = assay: growth inhibition of Du-Pro1 prostate cancer cells (calcein fluorescence); format: cell-based; conditions: Homo sapiens, 72 h; 3 days incubation; read-out: Du-Pro1 IC50
Experimental: (§1) Throughout the experiment the Tsu-Pr1 and Du-Pro1 cells were maintained in RPMI 1640 medium (GIBCO) containing 10% fetal bovine serum (Hyclone), 2 mM glutamine, 100 U/ml penicillin, and 100 μg/ml streptomycin. The PC-3 cells were maintained in Ham's F12K medium (Irvine Scientific) containing 10% fetal bovine serum (Hyclone), 2 mM glutamine, 100 U/ml penicillin, and 100 μg/ml streptomycin. All cell lines were maintained at 37° C. in a humidified atmosphere containing 5% CO2. The DU-145 cells were maintained in minimal essential medium (Gibco), containing 10% fetal bovine serum (Hyclone), 2 mM glutamine, and no antibiotics.
(§2) Tests for growth inhibition by the candidate compounds were conducted by the following procedure. In each well of a 96-well plate (Falcon) were placed 2,500 cells in 0.1 ml of medium. The cultures were incubated overnight after which a 0.1 ml aliquot of culture medium was added to each well. […] Other control wells received medium without any K-252a derivative compounds. Incubation was continued for three days. On day three the number of cells in each well was measured using a calcein fluorescence assay (Bozyczko-Coyne et al. J. Neurosci. Meth. 50, 205-216 (1993)).
(§3) Calcein AM (Molecular Probes, Eugene, Oreg.), an analog of the viable dye fluorescein diacetate, is taken up by cells and cleaved intracellularly to fluorescent salts that are retained by intact membranes of viable cells. This method thus provides a reliable and quantitative measurement of cell survival. Calcein AM was diluted 2× in Dulbeccos phosphate buffered saline (D-PBS) to 2× the final assay concentration (6 μM) and 100 μl was added to culture wells containing 100 μl of medium. The plates were then incubated for 1 hour at 37° C. Cells were then washed 4 times with D-PBS to remove excess calcein not taken up by cells. The plate was read using a Millipore plate reading fluorimeter (Cytofluor 2350) at emission=485 nm and excitation=538 nm. After subtraction of blank values (wells containing medium but no cells), relative fluorescent values reflect a quantitative measurement of cell survival.
(§4) The number of cells in the wells containing functional derivatives was compared to the number of cells in the control wells. The concentration which inhibited cell growth by 50% was calculated and is referred to as the "IC50 ".

[1] = body weight and weight of peripheral organs in sexually immature mice; conditions: for Body Weight: Table 6, TEPBS 32.0 ± 0.6; for Heart weight / Testes weight / Stomach weight / Lung weight / Kidney weight / Liver weight: Table 7; for Heart weight: TEPBS 170 ± 10; for Testes weight: TEPBS 206 ± 8; for Stomach weight: TEPBS 272 ± 14; for Lung weight: TEPBS 280 ± 15; for Kidney weight: TEPBS 589 ± 34; for Liver weight: TEPBS 2004 ± 69
From the text: (§5) The following animal model can be used to test the efficacy of a functional derivative for treatment of a proliferative prostate condition. Sexually immature male mice of 15-20 g each (Charles River Laboratories, Raleigh, N.C.) were used in the following in vivo study. The mice were allowed at least 3 days after purchase to acclimate before being used in any experiments.
(§6) Each test group contained 12 mice. […] At the end of the 21 day dosing period the mice were sacrificed and whole body blood, dorsal prostate, ventral prostate, coagulating glands, seminal vesicles, heart, liver, stomach, lung, kidneys and testes were collected separately and weighed.

prostate glands = assay: inhibition of prostate growth in sexually immature mice (weight of prostate glands); format: in vivo; conditions: for Ventral Prostate weight / Dorsal Prostate weight / Coagulat-ing Glands weight / Seminal Vesicles weight: Table 6; for Ventral Prostate weight: TEPBS 14.0 ± 0.8; for Dorsal Prostate weight: TEPBS 14.6 ± 1.4; for Coagulat-ing Glands weight: TEPBS 29.6 ± 2.0; for Seminal Vesicles weight: TEPBS 71.4 ± 2.4
From the text: as §5, §6

DU-145 = assay: growth inhibition of DU-145 prostate cancer cells (calcein fluorescence); format: cell-based; conditions: Homo sapiens, DU-145, 72 h; 3 days incubation; read-out: DU-145 C50
Experimental: as §1, §2, §3, §4

[2] = test system: androgen independent human prostate cancer cell lines Tsu-Pr1, DuPro-1, PC-3 and DU-145; assay: growth inhibition of prostate cancer-derived cell lines, overall (calcein fluorescence); format: cell-based; conditions: Table 3
Experimental: as §1, §2
(§7) Calcein AM (Molecular Probes, Eugene, Oreg.), an analog of the viable dye fluorescein diacetate, is taken up by cells and cleaved intracellularly to fluorescent salts that are retained by intact membranes of viable cells. This method thus provides a reliable and quantitative measurement of cell survival. Calcein AM was diluted 2× in Dulbeccos phosphate buffered saline (D-PBS) to 2× the final assay concentration (6 μM) and 100 μl was added to culture wells containing 100 μl of medium. The plates were then incubated for 1 hour at 37° C. Cells were then washed 4 times with D-PBS to remove excess calcein not taken up by cells. The plate was read using a Millipore plate reading fluorimeter (Cytofluor 2350) at emission=485 nm and excitation=538 nm. After subtraction of blank values (wells containing medium but no cells), relative fluorescent values reflect a quantitative measurement of cell survival. […]

PC-3 = assay: growth inhibition of PC-3 prostate cancer cells (calcein fluorescence); format: cell-based; conditions: Homo sapiens, PC-3, 72 h; 3 days incubation; read-out: PC-3 IC50
Experimental: as §1, §2, §7

[3] = test system: Dunning R-3327 AT-2.1 prostate tumor; assay: inhibition of growth of Dunning R-3327 AT-2.1 prostate tumor in adult male Copenhagen rats; format: in vivo, rat; conditions: 10 mg/kg/day s.c.
From the text: The AT-2 tumor is a highly anaplastic cell line derived from the original slow-growing androgen-dependent Dunning R-3327 H rat prostate tumor (Issacs et al., Prostate 9:261-281, 1986). The AT-2 tumor model has been used to characterize other potential anti-prostatic cancer agents including linomide (Ichikawa et al., Cancer Research 52:3022-3028, 1992) and suramin (Morton et al., Prostate 17:327-336, 1990) which is undergoing evaluation in clinical trials for androgen-independentprostate cancer (Eisenberger et al., J. Natl. Can. Inst. 85: 611-621, 1993).
Experimental Protocol: Twenty-four inbred male Copenhagen rats were inoculated subcutaneously in the flank with 1×10^6 viable AT-2.1 tumor cells. All animals were allowed to develop tumors of approximately 2.7 cm^3 in size (approximately 14 days) before being randomized into three groups of 8 animals each. Group 1 received daily subcutaneous injections of vehicle alone (1 ml/kg body weight). […] All animals had their tumor sizes evaluated for a period of 16 days. Tumor volume was calculated using the formula (1×w^2)×0.5.

In the case of `COC1(CO)CC2OC1(C)n1c3ccccc3c3c4c(c5c6ccccc6n2c5c31)C(=O)NC4` (stereo not shown) [Compound I-19], the IC50 (Du-Pro1) is reported as 270 nM, the “Body Weight” value ([1]; 1 mg/kg) is reported as 31.9 ± 0.8 g and the “Body Weight” value ([1]; 10 mg/kg) is reported as 31.2 ± 0.5 g. It also gave a Heart weight ([1]; 1 mg/kg) of 160 ± 20 mg, a Testes weight ([1]; 1 mg/kg) of 205 ± 7 mg and a Stomach weight ([1]; 1 mg/kg) of 252 ± 12 mg. For the same molecule, the Lung weight ([1]; 1 mg/kg) was 323 ± 16 mg, the Kidney weight ([1]; 1 mg/kg) was 467 ± 18 mg and the Liver weight ([1]; 1 mg/kg) was 1968 ± 58 mg. The Heart weight ([1]; 10 mg/kg) was 166 ± 8 mg, the Testes weight ([1]; 10 mg/kg) was 208 ± 8 mg and the Stomach weight ([1]; 10 mg/kg) was 242 ± 11 mg. It also gave a Lung weight ([1]; 10 mg/kg) of 276 ± 18 mg, a Kidney weight ([1]; 10 mg/kg) of 563 ± 17 mg and a Liver weight ([1]; 10 mg/kg) of 1933 ± 70 mg. The “weights of ventral prostate, dorsal prostate, seminal vesicles, and coagulating glands, in words” value (prostate glands; 1 mg/kg) was “significantly reduced the weights of ventral prostate, dorsal prostate, seminal vesicles, and coagulating glands”, the “weights of ventral prostate, dorsal prostate, seminal vesicles, and coagulating glands, in words” value (prostate glands; 10 mg/kg) was “significantly reduced the weights of ventral prostate, dorsal prostate, seminal vesicles, and coagulating glands” and the “Ventral Prostate weight” value (prostate glands; 1 mg/kg) was 11.0 ± 0.9 mg. For the same molecule, the “Dorsal Prostate weight” value (prostate glands; 1 mg/kg) was 10.4 ± 0.9 mg, the “Coagulat-ing Glands weight” value (prostate glands; 1 mg/kg) was 24.6 ± 1.4 mg and the “Seminal Vesicles weight” value (prostate glands; 1 mg/kg) was 60.0 ± 2.2 mg. For the same molecule, the “Ventral Prostate weight” value (prostate glands; 10 mg/kg) was 10.5 ± 0.6 mg, the “Dorsal Prostate weight” value (prostate glands; 10 mg/kg) was 7.2 ± 0.8 mg and the “Coagulat-ing Glands weight” value (prostate glands; 10 mg/kg) was 23.6 ± 0.8 mg. For the same molecule, the “Seminal Vesicles weight” value (prostate glands; 10 mg/kg) was 52.0 ± 2.0 mg, the IC50 (DU-145) was 110 nM and the “potency in inhibiting prostate cell line growth, in words” value [2] was “most potent compounds in inhibiting growth in all four cell lines”. The IC50 (PC-3) was 5000 nM, the “inhibiting growth of AT-2.1 tumors” value ([3]; approximately) was 50-60% and the “Tumor volume Day 0” value ([3]; vehicle 2.73 ± 0.50) was 2.62 ± 0.53 cm^3. The “Tumor volume Day 3” value ([3]; vehicle 6.66 ± 1.48) was 5.52 ± 1.10 cm^3, the “Tumor volume Day 8” value ([3]; vehicle 21.0 ± 3.0) was 11.3 ± 1.8 cm^3 and the “Tumor volume Day 13” value ([3]; vehicle 37.3 ± 4.0) was 22.4 ± 2.7 cm^3. The “Tumor volume Day 16” value ([3]; vehicle 58.7 ± 5.0) was 28.4 ± 5.1 cm^3.

Source: patent US5654427A, “Indolocarbazole derivatives to treat a pathological condition of the prostate” (Kyowa Hakko Kogyo Co., Ltd., priority 1995, dated 1997)
